Tests used:
Assay type in all cases: cell-based
[1] = molecular target: T1, VRAC-mediated chloride current (ICl, swell) in LN215 cells (Homo sapiens, UniProt Q8IWT6); experiment: Whole-cell voltage-clamp of ICl,swell in LN215 cells; settings: dose-dependent
T1 construct: endogenous in cells; host or cells: LN215 human glioma cells stably expressing the halide sensor YFP-F46L/H148Q/I152L
T1 sequence (Q8IWT6 1-810): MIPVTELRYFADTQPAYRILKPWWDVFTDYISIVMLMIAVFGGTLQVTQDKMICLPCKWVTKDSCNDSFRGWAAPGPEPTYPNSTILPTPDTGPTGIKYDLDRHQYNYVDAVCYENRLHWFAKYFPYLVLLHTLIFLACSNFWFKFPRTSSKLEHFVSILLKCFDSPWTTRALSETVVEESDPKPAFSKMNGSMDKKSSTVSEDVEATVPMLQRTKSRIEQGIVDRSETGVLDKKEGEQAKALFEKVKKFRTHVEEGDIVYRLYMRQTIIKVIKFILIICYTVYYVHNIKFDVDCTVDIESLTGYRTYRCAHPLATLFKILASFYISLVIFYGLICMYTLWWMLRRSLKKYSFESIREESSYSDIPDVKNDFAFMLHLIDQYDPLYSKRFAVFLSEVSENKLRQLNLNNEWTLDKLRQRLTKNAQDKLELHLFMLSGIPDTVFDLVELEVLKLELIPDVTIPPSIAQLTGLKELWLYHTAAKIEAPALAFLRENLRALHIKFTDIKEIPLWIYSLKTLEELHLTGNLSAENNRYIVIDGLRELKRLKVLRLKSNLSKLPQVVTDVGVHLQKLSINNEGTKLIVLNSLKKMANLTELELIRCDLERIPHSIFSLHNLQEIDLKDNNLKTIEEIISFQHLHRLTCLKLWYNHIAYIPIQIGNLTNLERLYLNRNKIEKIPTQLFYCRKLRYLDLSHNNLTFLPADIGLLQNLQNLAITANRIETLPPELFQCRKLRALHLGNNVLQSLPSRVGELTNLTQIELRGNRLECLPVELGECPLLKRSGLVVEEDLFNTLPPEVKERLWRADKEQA
Method: (A) Whole-cell membrane currents were recorded at a holding potential of −50 mV by voltage steps ranging from −120 to 120 mV (in steps of 20 mV) in HEK293T cells. […] (C) Whole-cell VRAC currents were recorded at a holding potential of −50 mV by voltage steps ranging from −100 to 100 mV (in steps of 20 mV) in LN215 cells.
For volume-regulated anion channel (VRAC) currents measurement, the isotonic bath solution contained (in mM): 150 NaCl, 6 KCL, 1.5 CaCl2, 1 MgCl2, 10 glucose, 1 HEPES, and pH 7.4 with NaOH (320 mOsm). […] The pipette solution contained (in mM): 40 CsCl, 100 Cs-methanesulfonate, 0.5 EGTA, 1 MgCl2, 1.9 CaCl2, 5 EGTA, 4 Tris−ATP, 10 HEPES, and pH 7.2 with CsOH (290 mOsm). Pipettes were pulled from borosilicate glass and had resistances of 3–5 MΩ after fire polishing. Seal resistances were between 3 and 10 GΩ. The liquid junction potential (~2.4 mV) was not corrected. After establishing the whole-cell configuration, whole-cell capacitance and series resistance were compensated with the amplifier circuitry. VRAC was activated by exposing LN215 cells to a 25% hypotonic bath solution. Whole-cell currents were elicited by applying hyperpolarizing and depolarizing voltage pulses from a holding potential of 0 mV to potentials between −100 mV and +100 mV or −120 mV and +120 mV in steps of 20 mV. Recordings were made at room temperature. […]

VRAC in HeLa cells = molecular target: T2, VRAC in HeLa cells (Homo sapiens, UniProt Q8IWT6)
T2 construct: endogenous in cells; host or cells: HeLa cervical cancer cells stably expressing the YFP halide sensor
T2 sequence (Q8IWT6 1-810): T1 sequence (Q8IWT6 1-810)

ANO1 = molecular target: T3, ANO1 (Homo sapiens, UniProt Q5XXA6, DEL476-501); experiment: Apical membrane current of ANO1 in FRT cells expressing human ANO1
T3 construct: expressed in transfected cells; host or cells: Fisher rat thyroid (FRT) cells; The YFP assay uses FRT-ANO1-YFP cells, which also carry the halide sensor
T3 sequence (Q5XXA6 with tags, fused parts or gaps isoform Q5XXA6-5 DEL539-564): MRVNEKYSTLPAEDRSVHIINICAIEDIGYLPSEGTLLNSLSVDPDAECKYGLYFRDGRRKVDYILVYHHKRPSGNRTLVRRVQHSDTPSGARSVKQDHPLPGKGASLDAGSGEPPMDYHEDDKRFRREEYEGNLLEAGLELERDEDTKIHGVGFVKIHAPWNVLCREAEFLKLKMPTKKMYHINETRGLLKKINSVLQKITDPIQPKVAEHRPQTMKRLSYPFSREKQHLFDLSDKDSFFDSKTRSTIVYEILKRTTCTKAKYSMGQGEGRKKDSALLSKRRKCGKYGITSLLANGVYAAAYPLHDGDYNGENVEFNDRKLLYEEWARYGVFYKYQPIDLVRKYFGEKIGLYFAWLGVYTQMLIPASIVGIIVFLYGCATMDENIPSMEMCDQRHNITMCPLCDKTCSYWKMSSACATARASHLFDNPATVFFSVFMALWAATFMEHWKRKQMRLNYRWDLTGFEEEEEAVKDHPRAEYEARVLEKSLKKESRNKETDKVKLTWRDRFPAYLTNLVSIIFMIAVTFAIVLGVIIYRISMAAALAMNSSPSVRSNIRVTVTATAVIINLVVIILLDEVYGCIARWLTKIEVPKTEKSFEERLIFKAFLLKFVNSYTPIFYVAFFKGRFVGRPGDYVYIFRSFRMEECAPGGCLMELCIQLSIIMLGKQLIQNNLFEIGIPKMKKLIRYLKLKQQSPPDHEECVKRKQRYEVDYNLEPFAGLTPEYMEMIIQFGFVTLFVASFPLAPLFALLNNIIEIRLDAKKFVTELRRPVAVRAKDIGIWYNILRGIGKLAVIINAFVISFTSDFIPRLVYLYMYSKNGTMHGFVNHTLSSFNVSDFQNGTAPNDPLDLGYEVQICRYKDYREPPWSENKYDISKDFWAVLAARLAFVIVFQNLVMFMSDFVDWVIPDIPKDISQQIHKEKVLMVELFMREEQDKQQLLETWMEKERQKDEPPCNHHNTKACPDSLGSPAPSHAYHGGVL
Method: (A) Representative Fluo4 fluorescence traces from 3 independent experiments in FRT cells. […] (B,C) Representative apical membrane currents from 3–4 independent experiments in FRT cells expressing human ANO1. […] (D) Representative YFP fluorescence traces in FRT cells expressing human ANO2. […] (E) Representative Fluo4 fluorescence traces from 3 independent experiments in FRT cells. Cells were pretreated with DCPIB for 10 min followed by application of 100 μM ATP. (F) Representative apical membrane currents in FRT cells expressing human ANO1.
Snapwell inserts containing ANO1(abc) or CFTR-expressing FRT cells were mounted in Ussing chambers (Physiological Instruments, San Diego, CA). The basolateral hemichamber was filled with buffer solution (in mM): 120 NaCl, 5 KCl, 1 MgCl2, 1 CaCl2, 10 D-glucose, 2.5 HEPES, and 25 NaHCO3 (pH 7.4). The apical hemichamber was filled with buffer solution (in mM): 60 NaCl, 60 Na-gluconate, 5 KCl, 1 MgCl2, 1 CaCl2, 10 D-glucose, 2.5 HEPES, and 25 NaHCO3 (pH 7.4). FRT cells were bathed for a 10 min stabilization period and gassed with 5% CO2 and 95% O2 at 37 °C. The apical membrane current was recorded with an EVC4000 Multi-Channel V/I Clamp (World Precision Instruments, Sarasota, FL, USA) and a PowerLab 4/35 (AD Instruments, Castle Hill, Australia).

With COc1cccc(C(c2c(O)c3ccccc3oc2=O)c2c(O)c3ccccc3oc2=O)c1O [VI-116, 3,3′-((2-hydroxy-3-methoxyphenyl)methylene)bis(4-hydroxy-2H-chromen-2-one)] the “effect on hypotonic perfusion activated ICl, swell” value [1] was “completely blocked”, the IC50 (VRAC in HeLa cells) was 1200 ± 80 nM and the “effect on ANO1 channel activity” value (ANO1; 10 μM) was “minimal effect”. The “effect on ANO1 activation by Eact (apical membrane current)” value (ANO1; FRT cells expressing human ANO1, 3 μM Eact) was “did not alter” and the “effect on ANO1 activation by ATP (apical membrane current)” value (ANO1; FRT cells expressing human ANO1, 100 μM ATP) was “did not alter”.
